Results published in ChEMBL document CHEMBL1212877, “Multipotent drugs with cholinergic and neuroprotective properties for the treatment of Alzheimer and neuronal vascular diseases. I. Synthesis, biological assessment, and molecular modeling of simple and readily available 2-aminopyridine-, and 2-chloropyridine-3,5-dicarbonitriles” (Bioorg Med Chem, 2010).
Where “and” joins values, the source holds several entries; their conditions need not be identical. Equal entries are not always repeated.

Key:
Acetylcholinesterase [1] = molecular target: T1, Acetylcholinesterase (Electrophorus electricus, UniProt O42275); experiment: Inhibition of Electrophorus electricus AChE after 10 mins by Ellman's method
T1 sequence (O42275 whole entry): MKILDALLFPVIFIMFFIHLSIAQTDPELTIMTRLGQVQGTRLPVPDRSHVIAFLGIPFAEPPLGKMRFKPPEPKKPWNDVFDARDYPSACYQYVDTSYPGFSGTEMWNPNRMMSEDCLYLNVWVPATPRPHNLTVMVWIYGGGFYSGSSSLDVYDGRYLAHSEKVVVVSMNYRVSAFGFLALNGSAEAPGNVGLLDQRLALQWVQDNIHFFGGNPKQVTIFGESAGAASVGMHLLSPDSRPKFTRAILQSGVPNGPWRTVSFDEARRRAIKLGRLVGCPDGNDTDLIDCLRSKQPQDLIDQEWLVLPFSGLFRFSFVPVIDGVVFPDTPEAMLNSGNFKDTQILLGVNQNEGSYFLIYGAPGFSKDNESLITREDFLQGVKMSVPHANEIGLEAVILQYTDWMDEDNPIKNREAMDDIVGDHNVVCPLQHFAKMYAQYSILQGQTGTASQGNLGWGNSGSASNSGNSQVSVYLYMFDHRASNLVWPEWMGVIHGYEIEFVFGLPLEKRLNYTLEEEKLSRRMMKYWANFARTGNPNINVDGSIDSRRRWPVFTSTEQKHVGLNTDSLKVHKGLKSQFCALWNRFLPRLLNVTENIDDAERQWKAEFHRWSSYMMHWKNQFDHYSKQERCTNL

SH-SY5Y [2] = experiment: Neuroprotective activity in human SH-SY5Y cells assessed as protection against rotenone/oligomycin-A-induced cell death at 1 uM after 24 hrs by LDH release assay relative to control; type: functional
SH-SY5Y [3] = experiment: Neuroprotective activity in human SH-SY5Y cells assessed as protection against rotenone/oligomycin-A-induced cell death at 1 uM after 24 hrs by MTT assay relative to control; type: functional
Butyrylcholinesterase = Butyrylcholinesterase (Equus caballus, UniProt Q9N1N9); experiment: Inhibition of equine serum BuChE after 10 mins by Ellman's method
Sequence of Butyrylcholinesterase (Q9N1N9 whole entry): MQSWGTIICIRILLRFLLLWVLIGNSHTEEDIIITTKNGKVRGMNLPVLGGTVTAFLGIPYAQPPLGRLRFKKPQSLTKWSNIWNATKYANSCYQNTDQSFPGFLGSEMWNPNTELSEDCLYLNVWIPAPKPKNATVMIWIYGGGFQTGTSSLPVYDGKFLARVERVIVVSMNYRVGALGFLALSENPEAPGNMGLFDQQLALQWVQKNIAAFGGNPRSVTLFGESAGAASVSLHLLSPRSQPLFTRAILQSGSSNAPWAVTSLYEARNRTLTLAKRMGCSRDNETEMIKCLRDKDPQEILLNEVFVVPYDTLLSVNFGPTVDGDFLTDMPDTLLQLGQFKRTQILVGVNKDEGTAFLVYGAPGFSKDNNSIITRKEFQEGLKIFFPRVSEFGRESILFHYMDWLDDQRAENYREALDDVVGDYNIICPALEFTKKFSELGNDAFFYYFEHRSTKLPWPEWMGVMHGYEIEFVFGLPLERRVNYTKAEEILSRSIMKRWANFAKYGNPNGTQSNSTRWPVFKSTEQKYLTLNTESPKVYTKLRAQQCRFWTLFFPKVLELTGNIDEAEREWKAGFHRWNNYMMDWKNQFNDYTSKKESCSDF

Acetylcholinesterase [4] = molecular target: T1, Acetylcholinesterase; experiment: Non competitive inhibition of Electrophorus electricus AChE by Lineweaver-Burke plot analysis
Acetylcholinesterase [5] = molecular target: T1, Acetylcholinesterase; experiment: Binding affinity to Electrophorus electricus AChE peripheral anionic site

Compound | IC50 (Acetylcholinesterase [1]) [µM] | Activity (SH-SY5Y [2]) [%] | Activity (SH-SY5Y [3]) [%] | IC50 (Butyrylcholinesterase) [µM] | Ki (Acetylcholinesterase [4]) [µM] | Ki (Acetylcholinesterase [5])
N#Cc1cc(C#N)c(NCCO)nc1N | > 100 | 3 | 21.4 | > 100 |  | 
N#Cc1cc(C#N)c(N2CCCCC2)nc1Cl | 9.5 |  | 14.7 | > 100 | 17.2 | 
N#Cc1cc(C#N)c(N2CCCCC2)nc1N | > 100 | 14.8 | 10.2 | 26 |  | 
N#Cc1cc(C#N)c(N2CCC(O)CC2)nc1N | > 100 | 15.1 | 3 | > 100 |  | 
N#Cc1cc(C#N)c(N2CCC(Cc3ccccc3)CC2)nc1N | > 100 |  | 19.1 | > 100 |  | 
N#Cc1c(Cl)nc(N2C3CCC2CC3)c(C#N)c1-c1ccccc1 | > 100 |  | 12.9 | > 100 |  | 
N#Cc1c(Cl)nc(N2CCCC2)c(C#N)c1-c1ccccc1 | 5.6 | 37.7 | 7.5 | > 100 |  | 
CCOc1nc(N)c(C#N)cc1C#N | > 100 | 10.9 | 32.9 | > 100 |  | 
N#Cc1c(N)nc(NCc2ccccc2)c(C#N)c1-c1ccccc1 | > 100 |  | 10.6 | > 100 |  | 
N#Cc1cc(C#N)c(N2C3CCC2CC3)nc1N | > 100 |  | 0 | > 100 |  | 
CN(C)c1nc(N)c(C#N)cc1C#N | 22.7 | 36.2 | 12.9 | > 100 |  | 
N#Cc1c(N)nc(Sc2ccccc2)c(C#N)c1-c1ccccc1 | > 100 | 3.84 | 11.2 | > 100 |  | 
CN(C)c1nc(N)c(C#N)c(-c2ccccc2)c1C#N | > 100 |  | 0 | > 100 |  | 
COc1nc(N)c(C#N)cc1C#N | > 100 |  | 11 | > 100 |  | 
N#Cc1c(N)nc(N2CCCCC2)c(C#N)c1-c1ccccc1 | > 100 | 10.7 | 2.7 | > 100 |  | 
N#Cc1c(Cl)nc(N2CCCCC2)c(C#N)c1-c1ccccc1 | > 100 |  | 0 | > 100 |  | 
N#Cc1cc(C#N)c(N2CCCC2)nc1N | 3.5 |  | 20.1 | > 100 |  | 
N#Cc1cc(C#N)c(OCCCc2ccccc2)nc1N | > 100 |  | 0 | > 100 |  | 
N#Cc1c(N)nc(N2C3CCC2CC3)c(C#N)c1-c1ccccc1 | > 100 |  | 0.7 | 3.8 |  | 
CN(C)c1nc(Cl)c(C#N)cc1C#N | 5 |  | 6 | > 100 |  | 
N#Cc1cc(C#N)c(N2CCCC2)nc1Cl | 0.8 | 32 | 7.5 | > 100 |  | 
N#Cc1cc(C#N)c(N2C3CCC2CC3)nc1Cl | 75 | 31.6 | 7.5 | 24 |  | 
N#Cc1c(N)nc(S)c(C#N)c1-c1ccccc1 | > 100 | 14.1 | 5.8 | > 100 |  | 
C#CCNc1nc(N)c(C#N)cc1C#N | > 100 |  | 17.7 | > 100 |  | 
CC[N+](C)(CC)CCC[n+]1c(-c2ccccc2)c2cc(N)ccc2c2ccc(N)cc21 [PROPIDIUM] |  |  |  |  |  | 8.6 µM and 8.9 µM
CN(C)c1nc(Cl)c(C#N)c(-c2ccccc2)c1C#N | 10 |  | 0 | > 100 |  | 
